Measured values taken from patent US11021481B2, “Substituted isoindolin-1-ones and 2,3-dihydro-1h-pyrrolo[3,4-c]pyridin-1-ones as HPK1 antagonists” (Nimbus Saturn, Inc., priority 2019, dated 2021).

Target: HPK1 (Homo sapiens (Human), UniProt Q92918)
Experiment: HPK1 biochemical enzyme assay (microfluidic mobility shift assay)
Settings: 1.5 nM HPK1, ATP 1 mM final, 30 min preincubation, 60 min at RT, Caliper EZ Reader; read-out: HPK1 1000UMATP caliper IC50
Outline: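 Mobility shift readout of HPK1 activity after a 60 min RT reaction with 1 mM ATP, 1 μM substrate and 5 mM MgCl2. Enzyme/substrate mix was first exposed to compounds for 30 min, using ten-point curves topping at 3 μM final.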

HPK1, sequence (Q92918 whole entry): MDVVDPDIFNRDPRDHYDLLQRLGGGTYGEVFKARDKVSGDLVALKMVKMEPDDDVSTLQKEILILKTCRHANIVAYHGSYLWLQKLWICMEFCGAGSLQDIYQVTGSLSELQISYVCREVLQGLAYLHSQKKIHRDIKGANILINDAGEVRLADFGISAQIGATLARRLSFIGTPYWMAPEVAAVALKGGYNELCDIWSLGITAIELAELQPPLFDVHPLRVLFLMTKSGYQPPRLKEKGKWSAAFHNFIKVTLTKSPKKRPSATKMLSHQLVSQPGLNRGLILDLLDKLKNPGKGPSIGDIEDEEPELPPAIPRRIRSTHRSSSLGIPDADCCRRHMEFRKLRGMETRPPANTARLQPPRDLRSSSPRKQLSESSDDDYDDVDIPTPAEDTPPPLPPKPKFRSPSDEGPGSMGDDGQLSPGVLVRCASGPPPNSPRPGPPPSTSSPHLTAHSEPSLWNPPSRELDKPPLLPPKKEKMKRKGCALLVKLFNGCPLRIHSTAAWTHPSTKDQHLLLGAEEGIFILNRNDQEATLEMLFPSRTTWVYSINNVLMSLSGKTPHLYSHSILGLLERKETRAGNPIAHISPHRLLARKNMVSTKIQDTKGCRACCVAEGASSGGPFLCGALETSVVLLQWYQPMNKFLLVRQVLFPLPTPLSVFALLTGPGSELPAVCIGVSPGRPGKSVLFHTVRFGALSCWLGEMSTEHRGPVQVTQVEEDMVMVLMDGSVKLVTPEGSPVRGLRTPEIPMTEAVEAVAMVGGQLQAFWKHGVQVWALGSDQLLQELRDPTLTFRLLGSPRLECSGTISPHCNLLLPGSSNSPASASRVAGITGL

| Structure (SMILES) | IC50 [µM] |
| --- | --- |
| Cc1ccn2c(-c3ncc(Nc4ccc(N5CCC(O)CC5)cn4)c4c3CNC4=O)cnc2c1 [I-154, 7-[[5-(4-hydroxy-1-piperidyl)-2-pyridyl]amino]-4-(7-methylimidazo [1,2-a]pyridin-3-yl)-2,3-dihydropyrrolo [3,4-c]pyridin-1-one] | < 0.1 |
| Cc1ccn2c(-c3ccc(Nc4ccc(C5CCOC5)cn4)c4c3CNC4=O)cnc2c1 (stereo not drawn) [I-155] | < 0.1 |
| O=C1NCc2c(-c3cnc4ccccn34)ncc(Nc3ccc(N4CCC(O)CC4)cn3)c21 [I-160, 7-[[5-(4-hydroxy-1-piperidyl)-2-pyridyl]amino]-4-imidazo[1,2-a]pyridin-3-yl-2,3-dihydropyrrolo [3,4-c]pyridin-1-one] | < 0.1 |
| Cn1ccc2c(-c3ccc(Nc4ccc(N5CCC(O)CC5)cn4)c4c3CNC4=O)cccc21 [I-161, 7-[[5-(4-hydroxy-1-piperidyl)-2-pyridyl]amino]-4-(1-methylindol-4-yl)isoindolin-1-one] | < 0.1 |
| Cc1cnn2c(-c3ccc(Nc4ccc(N5CCC(O)CC5)cn4)c4c3CNC4=O)ccnc12 [I-165, 7-[[5-(4-hydroxy-1-piperidxl)-2-pyridyl]amino]-4-(3-methylpyra-zolo[1,5-a]pyrimidin-7-yl)isoindolin-1-one] | > 1 |
| COc1cccn2c(-c3ccc(Nc4ccc(N5CCC(O)CC5)cn4)c4c3CNC4=O)cnc12 [I-166, 7-[[5-(4-hydroxy-1-piperidyl)-2-pyridyl]amino]-4-(8-methoxy-imidazo[1,2-a]pyridin-3-yl)isoindolin-1-one] | < 0.1 |
| O=C1NCc2c(-c3cnc4cc(F)ccn34)ncc(Nc3ccc(N4CCC(O)CC4)cn3)c21 [I-167, 4-(7-fluoroimidazo [1,2-a]pyridin-3-yl)-7-[[5-(4-hydroxy-1-piperidyl)-2-pyridyl]amino]-2,3-dihydropyrrolo [3,4-c]pyridin-1-one] | < 0.1 |
| Cn1ccn2c(-c3ccc(Nc4ccc(N5CCC(O)CC5)cn4)c4c3CNC4=O)cnc2c1=O [I-168, 3-[7-[[5-(4-hydroxy-1-piperidyl)-2-pyridyl]amino]-1-oxo-isoindolin-4-yl]-7-methyl-imidazo[1,2-a]pyrazin-8-one] | < 0.1 |
| O=C1NCc2c(-c3cnc4cnccn34)ccc(Nc3ccc(N4CCC[C@H](O)C4)cn3)c21 [I-169, 7-[[5-[(3S)-3-hydroxy-1-piperipyl]-2-pyridyl]amino]-4-imidazol[1,2-a]pyrazin-3-yl-isoindolin-1-one] | < 0.1 |
| Cc1ccn2c(-c3ccc(Nc4ccc(N5CCC[C@H](O)C5)cn4)c4c3CNC4=O)cnc2c1 [I-170, 7-[[5-[(3S)-3-hydroxy-1-piperidyl]-2-pyridyl]amino]-4-(7-methylimidazo [1,2-a]pyridin-3-yl)isoindolin-1-one] | < 0.1 |
| O=C1NCc2c(-c3cnc4cnccn34)ccc(Nc3ccc(N4CCC[C@@H](O)C4)cn3)c21 [I-171] | < 0.1 |
| O=C1NCc2c(-c3cnc4cc(F)ccn34)ccc(Nc3ccc(N4CCC[C@H](O)C4)cn3)c21 [I-175, 4-(7-fluoroimidazo [1,2-a]pyridin-3-yl)-7-[[5-[(3S)-3-hydroxy-1-piperidyl]-2-pyridyl]amino] isoindolin-1-one] | < 0.1 |
| O=C1NCc2c(-c3cnc4cc(C5CC5)ccn34)ccc(Nc3ccc(N4CCC(O)CC4)cn3)c21 [I-181, 4-(7-cyclopropyl-imidazo[1,2-a]pyridin-3-yl)-7-[[5-(4-hydroxy-1-piperidyl)-2-pyridyl]amino] isoindolin-1-one] | < 0.1 |

The remaining lines, values ahead:

| IC50 [µM] | Structure (SMILES) |
| --- | --- |
| < 0.1 | O=C1NCc2c(-c3cnc4c(F)cccn34)ccc(Nc3ccc(N4CCOCC4)cn3)c21 [I-156, 4-(8-fluoroimidazo [1,2-a]pyridin-3-yl)-7-[(5-morpholino-2-pyridyl)amino] isoindolin-1-one] |
| < 0.1 | O=C1NCc2c(-c3cnn4cccnc34)ccc(Nc3ccc(N4CCC(O)CC4)cn3)c21 [I-157, 7-[[5-(4-hydroxy-1-piperidyl)-2-pyridyl]amino]-4-pyrazolo[1,5-a]pyrimidin-3-yl-isoindolin-1-one] |
| < 0.1 | Cc1nccn2c(-c3ccc(Nc4ccc(N5CCC(O)CC5)cn4)c4c3CNC4=O)cnc12 [I-158, 7-[[5-(4-hydroxy-1-piperidyl)-2-pyridyl]amino]-4-(8-methylimidazo [1,2-a]pyrazin-3-yl)isoindolin-1-one] |
| < 0.1 | O=C1NCc2c(-c3cnc4cc(F)ccn34)ccc(Nc3ccc(N4CCOCC4)cn3)c21 [I-159, 4-(7-fluoroimidazo [1,2-a]pyridin-3-yl)-7-[(5-morpholino-2-pyridyl)amino] isoindolin-1-one] |
| < 0.1 | O=C1NCc2c(-c3cnc4cccnn34)ccc(Nc3ccc(N4CCC(O)CC4)cn3)c21 [I-162, 7-[[5-(4-hydroxy-1-piperidyl)-2-pyridyl]amino]-4-imidazo[1,2-b]pyridazin-3-yl-isoindolin-1-one] |
| 0.1 to 1 | Cc1ccn2c(-c3ncc(Nc4ccc(N5CCOCC5)cn4)c4c3CNC4=O)cnc2c1 [I-163] |
| < 0.1 | COc1ccn2c(-c3ccc(Nc4ccc(N5CCC(O)CC5)cn4)c4c3CNC4=O)cnc2c1 [I-164, 7-[[5-(4-hydroxy-1-piperidyl)-2-pyridyl]amino]-4-(7-methoxylmidazo[1,2-a]pyridin-3-yl)isoindolin-1-one] |
| < 0.1 | Cc1ccn2c(-c3ccc(Nc4ccc(N5CCC[C@@H](O)C5)cn4)c4c3CNC4=O)cnc2c1 [I-172, 7-[[5-[(3R)-3-hydroxy-1-piperipyl]-2-pyridyl]amino]-4-(7-methylimidazo [1,2-a]pyridin-3-yl)isoindolin-1-one] |
| < 0.1 | Cn1cnc2c(-c3ccc(Nc4ccc(N5CCC(O)CC5)cn4)c4c3CNC4=O)cccc21 [I-173, 7-[[5-(4-hydroxy-1-piperidyl)-2-pyridyl]amino]-4-(1-methylbenz-imidazol-4-yl)isoindolin-1-one] |
| < 0.1 | O=C1NCc2c(-c3cnc4cc(F)ccn34)ccc(Nc3ccc(N4CCC[C@@H](O)C4)cn3)c21 [I-174, 4-(7-fluoroimidazo [1,2-a]pyridin-3-yl)-7-[[5-[(3R)-3-hydroxy-1-piperipyl]-2-pyripyl]amino] isoindolin-1-one] |
| < 0.1 | Cc1ccn2c(-c3ccc(Nc4ccc(N5CCC(O)CC5)cn4)c4c3CNC4=O)cnc2c1C [I-176, 4-(7,8-dimethylimi-dazo[1,2-a]pyridin-3-yl)-7-[[5-(4-hydroxy-1-piperidyl)-2-pyridyl]amino] isoindolin-1-one] |
| < 0.1 | Cn1ccc2c(-c3ncc(Nc4ccc(N5CCC[C@@H](O)C5)cn4)c4c3CNC4=O)ccnc21 [I-178, 7-[[5-[(3R)-3-hydroxy-1-piperidyl]-2-pyridyl]amino]-4-(1-methylpyrrolo [2,3-b]pyridin-4-yl)-2,3-dihydropyrrolo [3,4-c]pyridin-1-one] |
| < 0.1 | Cn1ccc2c(-c3ncc(Nc4ccc(N5CCC[C@H](O)C5)cn4)c4c3CNC4=O)ccnc21 [I-179, 7-[[5-[(3S)-3-hydroxy-1-piperidyl]-2-pyridyl]amino]-4-(1-methylpyrrolo [2,3-b]pyridin-4-yl)-2,3-dihydropyrrolo [3,4-c]pyridin-1-one] |
| 0.1 to 1 | Cc1ncc2c(-c3ccc(Nc4ccc(N5CCC(O)CC5)cn4)c4c3CNC4=O)cccn12 [I-180, 7-[[5-(4-hydroxy-1-piperidyl)-2-pyridyl]amino]-4-(3-methyliminidazo [1.5-a]pyridin-8-yl)isoindolin-1-one] |
